Measurements from US20260240817A1, “COMPOSITIONS AND METHODS FOR TREATING CHARCOT-MARIE-TOOTH DISEASE” (priority 2023, published 2026).
Entries after “also recorded” stand apart in the source; their conditions may differ.

Experiments:
[1] = test system: soleus muscle fibres from CMT2D mice; type: cell-based, mouse; conditions: 10 μM NMD670 added to CMT2D fibres, μ-Conotoxin-treated; vs before addition; 12, 30, 80 Hz trains
MG patients = assay: Phase 1 FIH study, single doses in MG patients; type: in vivo, human
Description: (§1) NMD670 has been tested in a Phase 1, FIH, single ascending and multiple ascending dose study in healthy volunteers. […] In addition, the Phase 1 FIH study also tested single doses of 400 mg and 1200 mg in 12 MG patients.

mouse model of CMT1A = assay: Stimulated EMG (CMAP decrement) in mouse model of CMT1A; type: in vivo
Description: Male and female mice (Jacson Laboratory Strain #:030052) approx. 6-7 months of age at time of study start were used. These genetically modified mice are used as a disease model to study Charcot Marie Tooth (CMT) disease type 1A (CMT1A).
The sodium salt of NMD670 was dissolved in phosphate buffered saline (PBS) to a dose volume of 1 mg/mL. The entire amount of dose-solution was then transferred to a vial labelled A or B (for blinding purposes). The vehicle control solution was PBS and this was transferred to a vial labelled A or B (for blinding purposes). Compound was dosed IP at a volume of 10 mL/kg, from a 1 mg/mL dose solution.
NMD670 or vehicle was administered by IP injection at a volume of 10 mL/kg from a 1 mg/mL dose solution while sedated in the EMG measurement set up. 10 to 15 minutes was allowed to elapse before next step was initiated.
Each mouse was tested prior to intervention with test article, and then tested after IP injection of 10 mg/kg NMD670 or vehicle (PBS). A washout period was then allowed (48 hours), and the mouse was subjected to the same test, but receiving the opposite treatment to that on the first day. All mice thus received both vehicle and NMD670, in a randomized order (FIG. 6).

healthy volunteers = assay: Phase I (FIH) clinical trial, safety and tolerability in healthy volunteers; type: in vivo, human
Excerpt: Part A1 tested single doses of NMD670 in a double-blind, randomised, placebo-controlled, partial crossover and dose-escalating design in healthy male subjects (see the WHO International Clinicals Trials Registry Platform study reference NL8692). A total of nine dose levels were investigated in three cohorts of subjects. Each cohort consisted of nine subjects, each subject had three study sessions. Each subject received escalating doses of NMD670 on two occasions and placebo on one occasion, the order will be randomized in a cross-over fashion. Each dose level was randomized in a 6:3 ratio (active vs. placebo). See Table 10 for an overview of the randomization scheme.
Due to this temporary halt and partial unblinding of the study during dose level 7, a new randomization was necessary. After unblinding three subjects in dose level 7, the original randomization for dose 8 and 9 was changed in order to keep the study blinded. […] Therefore, for the remaining 2 doses, a full cross-over design investigating one previously tested dose level was used. The 9 subjects in cohort 3 were randomized to receive the study drug in level 8 and placebo in level 9, or vice versa. To determine the effect of food on the exposure of single oral doses of NMD670, dose level 5 was administered in both the fasted and fed condition. Subjects who received dose level 5 returned for a fourth visit in which they received dose level 5 (or matching placebo) in the fed condition, in the same randomization as the chosen dose level in the fasted condition.
Part A2 of the study investigated the safety, tolerability and pharmacokinetics of NMD670 in 8 healthy female subjects of non-childbearing potential, in a randomized, double-blind, placebo-controlled single dose administration of NMD670. Subjects received 800 mg NMD670. Subjects were randomized in a 6:2 ratio (active vs. placebo).
The following endpoints were determined at time points indicated in the Schedule of Assessments. • Serious adverse events (SAEs) and adverse events (AEs) were collected throughout the study at every study visit. • Concomitant medication • Clinical laboratory tests • Haematology • Chemistry • Urinalysis • Coagulation • Vital signs • Pulse Rate (bpm) • Systolic blood pressure (mmHg) • Diastolic blood pressure (mmHg) • Respiratory rate • ECG • Heart Rate (HR) (bpm), PR, QRS, QT, QTcF • 24-hour Holter recording • Hand grip dynamometry • Grip release profile; time profile from 100% maximum voluntary contraction (MVC) to 5% of the 100% MVC
as §1

[2] = test system: soleus muscle fibres from CMT2D mice; assay: Intracellular recordings of action potentials during repeated motor nerve stimulation, isolated soleus nerve-muscle preparations; type: cell-based, mouse

C[C@H](Oc1ccc(Br)cc1-c1ccon1)C(=O)O [NMD670, (2S)-2-[4-bromo-2-(1,2-oxazol-3-yl)phenoxy]propanoic acid]
EPP amplitude [1]: significant increase; also recorded: small non-significant increase
myotonia (MG patients; patients with MG, single doses of 400 mg and 1200 mg): not observed
symptoms of MG (MG patients; single dose of 400 mg): statistically significant and clinically relevant improvements of symptoms
CMAP decrement, NMD670 vs vehicle group after treatment (mouse model of CMT1A; 10 mg/kg IP, n=8): not significantly different
recovery of CMAP decrement after intervention (mouse model of CMT1A; 40 Hz, 10 mg/kg IP (sodium salt in PBS), vehicle 8.6): 15.2 % point
tolerability of maximum repeated dose (healthy volunteers; 400 mg BID, healthy volunteers): well tolerated
healthy subjects with myotonic symptoms (healthy volunteers; 1200 mg once a day, mild in intensity, resolved spontaneously within a few hours): 2
adverse event of myotonia, intensity (healthy volunteers; 1600 mg single dose, one healthy subject, spontaneously and fully resolved within hours): moderate in intensity; also recorded: moderate severity
serious or severe adverse effects (healthy volunteers; Phase 1, healthy subjects, single doses 50 to 1600 mg): No serious or severe adverse effects; also recorded: No serious adverse reactions
overall safety and tolerability (healthy volunteers; Phase 1 FIH study, TEAE incidence similar between NMD670 and placebo): safe and well tolerated
subject discontinuations (healthy volunteers; Phase 1 Part A): no subject discontinuations
total AEs reported (healthy volunteers; Phase 1 Part A, 35 subjects): 70
AEs at least possibly drug related (healthy volunteers; Phase 1 Part A, of 70 AEs, number (%)): 47 (67%)
serum uric acid (healthy volunteers; Phase 1 clinical study, not considered clinically significant): dose-dependent decrease
transient myotonia, relation to dose (healthy volunteers; single doses, 1200 mg and 1600 mg): reported at the highest dose levels tested
fibres unable to sustain action potential generation for the entire stimulus train ([2]; 12 Hz, after 10 μM NMD670, 3/47 fibres (before 6/60, 10%)): 6,4%
average action potential excitation failure ([2]; 12 Hz, after addition of 10 μM NMD670 (before 3.6)): 1.9%
fibres unable to sustain action potential generation for the entire stimulus train ([2]; 30 Hz, after 10 μM NMD670, 3/47 fibres (before 9/60, 15%)): 6.4%
average action potential excitation failure ([2]; 30 Hz, after addition of 10 μM NMD670 (before 4.9)): 0.8%
fibres unable to sustain action potential generation for the entire stimulus train ([2]; 80 Hz, after 10 μM NMD670, 20/47 fibres (before 33/60, 55%)): 42.5%
average action potential excitation failure ([2]; 80 Hz, after addition of 10 μM NMD670 (before 29.6)): 20.4%
